Assay results as given in PubChem BioAssay AID720624 (Broad Institute, 2013).
Records with an inconclusive call do not appear.

Test system: SNB-75 viability, CellTiter-Glo ATP luminescence, 8-48 h
Experiment: SNB-75 astrocytoma cell viability loss, late-stage follow-up, mechanism study for HRAS target identification, CellTiter-Glo ATP luminescence, several timepoints, dry powder (AID 720624)

Row | SMILES | AC50 (measured here: 8 h treatment) | AC50 (measured here: 24 h treatment) | AC50 (measured here: 48 h treatment)
1 | Cc1onc(C(=O)N2CCN(C(c3ccc(Cl)cc3)c3ccc(Cl)cc3)CC2)c1[N+](=O)[O-] | 629 nM | 490 nM | 1050 nM
2 | COc1ccc(N(C(=O)CCl)C(C(=O)NCCc2ccccc2)c2cccs2)cc1Cl (stereo not given) | 298 nM | 246 nM | 319 nM
3 | CC(C)(C)OC(=O)NCCOCCOCCOc1ccc(N(C(=O)CCl)C(C(=O)NCCc2ccccc2)c2cccs2)cc1Cl (stereo not given) | 787 nM | 398 nM | 1030 nM
4 | COC(=O)c1ccc([C@@H]2c3[nH]c4ccccc4c3C[C@@H](C(=O)OC)N2C(=O)CCl)cc1 | 479 nM | 224 nM | 418 nM
5 | C#CCCCC(=O)NCCOCCOCCOc1ccc(N(C(=O)CCl)C(C(=O)NCCc2ccccc2)c2cccs2)cc1Cl (stereo not given) | 3810 nM | 2480 nM | 4780 nM
